Drawing on ChEMBL document CHEMBL1201862, “PubChem BioAssay data set” (2004), this text covers EC50, AC50 and IC50 for 16 compounds.

A short description of data set [1]: Luminescence Cell-Based Dose Response HTS to Identify Activators of Luciferase Translation or Activity in H4 […] Cells. [Related pubchem assays: 1829 (Project Summary), 1814 (Primary HTS)]. It is filed as functional.
The target of data set [2] is T1, Heat shock factor protein 1 (Mus musculus, UniProt P38532).
T1 sequence (P38532 whole entry): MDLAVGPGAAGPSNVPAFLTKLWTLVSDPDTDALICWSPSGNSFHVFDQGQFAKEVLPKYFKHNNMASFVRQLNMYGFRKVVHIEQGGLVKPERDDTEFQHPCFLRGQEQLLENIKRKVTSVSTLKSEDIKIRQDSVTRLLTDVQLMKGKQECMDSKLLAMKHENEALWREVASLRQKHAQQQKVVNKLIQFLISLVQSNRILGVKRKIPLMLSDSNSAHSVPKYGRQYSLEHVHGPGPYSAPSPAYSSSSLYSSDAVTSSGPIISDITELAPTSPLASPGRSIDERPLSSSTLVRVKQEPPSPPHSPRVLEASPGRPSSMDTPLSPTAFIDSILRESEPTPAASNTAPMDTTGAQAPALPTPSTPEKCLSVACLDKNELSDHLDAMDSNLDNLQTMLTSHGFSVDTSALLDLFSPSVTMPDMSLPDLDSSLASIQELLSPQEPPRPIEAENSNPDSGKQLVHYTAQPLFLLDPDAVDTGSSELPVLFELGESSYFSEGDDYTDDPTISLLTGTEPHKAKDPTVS
Description: decrease of HSF1-responsive luciferase luminescence – cell-based, NIH3T3, dose retest, confirmation (AID 2382).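 Note: NIH3T3 fibroblasts with HSF1-driven luciferase reporter stressed by proteasome inhibitor MG132; luminescence from HSF1-driven luciferase expression after 8 hours of MG132 stress.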 It is filed as functional.

A further data set deals with H4. Description: Luminescence Cell-Based Dose Response HTS to Identify Activators of 5'UTR Stem-Loop Driven Prion Protein mRNA Translation in H4 Neuroglioblastoma Cells. [Related pubchem assays: 1829 (Project Summary), 1814 (Primary HTS)]. It counts as functional. To be noted: Homo sapiens.
For a further data set, the target named is Cytochrome P450 2C9 (Homo sapiens, UniProt P11712).
Chain of Cytochrome P450 2C9 (P11712 whole entry): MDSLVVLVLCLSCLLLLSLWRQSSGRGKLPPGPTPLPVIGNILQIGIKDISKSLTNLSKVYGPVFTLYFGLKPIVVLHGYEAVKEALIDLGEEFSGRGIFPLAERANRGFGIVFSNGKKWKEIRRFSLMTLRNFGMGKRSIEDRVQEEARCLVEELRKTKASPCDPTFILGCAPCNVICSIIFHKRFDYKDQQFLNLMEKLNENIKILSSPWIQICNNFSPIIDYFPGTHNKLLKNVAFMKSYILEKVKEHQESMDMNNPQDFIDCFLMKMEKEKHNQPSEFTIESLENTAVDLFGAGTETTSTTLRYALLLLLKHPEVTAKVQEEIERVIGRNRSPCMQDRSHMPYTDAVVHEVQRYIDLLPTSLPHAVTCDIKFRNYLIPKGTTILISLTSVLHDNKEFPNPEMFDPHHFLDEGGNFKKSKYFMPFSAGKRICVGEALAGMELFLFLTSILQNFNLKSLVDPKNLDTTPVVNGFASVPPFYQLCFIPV
Data set [3] in a line: Luminescence Cell-Based Dose Confirmation HTS to Identify Activators of 5'UTR Stem-Loop Driven Alpha-Synuclein mRNA Translation in H4 Neuroglioblastoma Cells. [Related pubchem assays: 1829 (Project Summary), 1814 (Primary HTS)]. It is filed as functional.
Data set [4] concerns the target Glyceraldehyde-3-phosphate dehydrogenase (Homo sapiens, UniProt P04406).
The nature of data set [5]: blockers of HIV-1 envelope-mediated cell-cell fusion – cherry-pick, dose response (AID 652057). It is filed as functional, cell-based.
Data set [6] in a line: blockers of HIV-1 ZM109 envelope-driven cell-cell fusion – HeLa effector, CEM target cells, luciferase, cherry-pick, dose response (AID 652058).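 Note: luciferase signal from HIV-1 Env mediated cell-cell fusion of effector and target cells.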 It counts as functional, cell-based.
Data set [7] in a line: HIV-1 AD8 envelope cell-cell fusion blockers – cherry-pick, dose response (AID 652062).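 Note: luciferase signal from cell-cell fusion driven by HIV-1 clade B AD8 Env; potency is for inhibitors of fusion seen as a drop in luminescence.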 It is filed as functional, cell-based.
Data set [8] has as its target DNA dC->dU-editing enzyme APOBEC-3G (Homo sapiens, UniProt Q9HC16). In words: Dose Response confirmation of small molecule APOBEC3G DNA Deaminase Inhibitors via a fluorescence-based single-stranded DNA deaminase assay. [Related pubchem assays (depositor defined):AID493012, AID493028]. It counts as functional.
The target in the next data set is Cytochrome P450 3A4 (Homo sapiens, UniProt P08684).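 Note: CYP3A4 tested as one member of a cytochrome P450 panel screen.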
Chain of Cytochrome P450 3A4 (P08684 whole entry, the tested form may be a part): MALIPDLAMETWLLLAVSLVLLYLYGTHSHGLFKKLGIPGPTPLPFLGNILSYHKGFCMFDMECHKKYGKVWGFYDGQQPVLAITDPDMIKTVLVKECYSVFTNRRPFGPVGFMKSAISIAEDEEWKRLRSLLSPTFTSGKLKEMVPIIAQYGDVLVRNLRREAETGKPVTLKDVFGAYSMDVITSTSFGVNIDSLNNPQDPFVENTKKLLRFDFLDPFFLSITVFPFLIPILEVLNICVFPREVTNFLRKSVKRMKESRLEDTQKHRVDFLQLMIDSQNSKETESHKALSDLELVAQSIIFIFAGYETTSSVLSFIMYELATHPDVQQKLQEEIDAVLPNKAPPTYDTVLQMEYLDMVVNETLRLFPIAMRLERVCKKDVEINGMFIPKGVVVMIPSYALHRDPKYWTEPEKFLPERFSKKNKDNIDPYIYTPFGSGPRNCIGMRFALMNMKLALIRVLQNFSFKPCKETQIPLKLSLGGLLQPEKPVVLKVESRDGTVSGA
Data set [9] concerns the target T2, Carboxy-terminal domain RNA polymerase II polypeptide A small phosphatase 1 (Homo sapiens, UniProt Q9GZU7).
T2 sequence (Q9GZU7 whole entry): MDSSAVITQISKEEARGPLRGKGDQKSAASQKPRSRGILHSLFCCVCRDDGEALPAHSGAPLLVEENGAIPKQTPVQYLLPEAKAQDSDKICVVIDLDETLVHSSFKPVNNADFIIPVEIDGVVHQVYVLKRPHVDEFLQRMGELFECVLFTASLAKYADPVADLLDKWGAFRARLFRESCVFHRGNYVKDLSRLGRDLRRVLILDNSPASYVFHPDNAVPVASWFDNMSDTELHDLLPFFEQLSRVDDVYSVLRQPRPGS
Description: CTDSP1 inhibitors, concentration-response, biochemical, absorbance readout, ultra-high-throughput screen actives (AID 540297). It counts as functional.

In the next data set the target is T3, Caspase-6 (Homo sapiens, UniProt P55212).
T3 sequence (P55212 whole entry): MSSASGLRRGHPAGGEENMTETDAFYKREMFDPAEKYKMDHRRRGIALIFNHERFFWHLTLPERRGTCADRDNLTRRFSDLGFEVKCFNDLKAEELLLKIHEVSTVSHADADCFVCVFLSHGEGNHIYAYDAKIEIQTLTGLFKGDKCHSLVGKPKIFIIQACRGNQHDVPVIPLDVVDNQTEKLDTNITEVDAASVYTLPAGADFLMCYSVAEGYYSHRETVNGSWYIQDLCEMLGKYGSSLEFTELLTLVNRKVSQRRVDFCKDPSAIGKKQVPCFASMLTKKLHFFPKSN
In words: inhibition of CASP6 peptide cleavage – biochemical, VEID-R110 fluorescence, cherry-pick, dose response (AID 720632).

The target of data set [10] is T4, Polyadenylate-binding protein 1 (Homo sapiens, UniProt P11940). In words: MLLE domain peptide-binding blockers, IC50 – biochemical, fluorescence polarization, FITC-PAM2 peptide, dose response (AID 602259). It counts as functional. The note with it: read-out: IC50_Mean. On the technique in general: Polarisation of emitted light reports the rotation of a fluorescent probe.
T4 sequence (P11940 whole entry, the tested form may be a part): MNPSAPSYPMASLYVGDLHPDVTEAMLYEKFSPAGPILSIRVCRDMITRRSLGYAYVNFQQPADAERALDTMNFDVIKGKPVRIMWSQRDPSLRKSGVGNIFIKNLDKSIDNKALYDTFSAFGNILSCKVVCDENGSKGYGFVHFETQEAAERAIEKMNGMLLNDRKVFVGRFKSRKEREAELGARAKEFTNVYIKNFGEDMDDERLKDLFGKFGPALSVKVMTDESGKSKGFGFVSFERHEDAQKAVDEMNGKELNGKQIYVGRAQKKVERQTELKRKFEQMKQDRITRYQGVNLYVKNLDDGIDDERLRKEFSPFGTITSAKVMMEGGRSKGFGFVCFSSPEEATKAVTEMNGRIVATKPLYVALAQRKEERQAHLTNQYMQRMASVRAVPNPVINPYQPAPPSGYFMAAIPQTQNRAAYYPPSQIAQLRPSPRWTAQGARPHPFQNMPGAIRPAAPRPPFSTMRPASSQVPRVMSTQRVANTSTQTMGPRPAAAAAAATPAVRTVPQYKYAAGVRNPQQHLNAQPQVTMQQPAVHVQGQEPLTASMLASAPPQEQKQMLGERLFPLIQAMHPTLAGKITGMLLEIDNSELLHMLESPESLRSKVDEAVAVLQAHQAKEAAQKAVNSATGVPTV

Data set [11] concerns the target T5, Replicative DNA helicase DnaB (Mycobacterium tuberculosis, UniProt P9WMR3).
T5 sequence (P9WMR3 whole entry): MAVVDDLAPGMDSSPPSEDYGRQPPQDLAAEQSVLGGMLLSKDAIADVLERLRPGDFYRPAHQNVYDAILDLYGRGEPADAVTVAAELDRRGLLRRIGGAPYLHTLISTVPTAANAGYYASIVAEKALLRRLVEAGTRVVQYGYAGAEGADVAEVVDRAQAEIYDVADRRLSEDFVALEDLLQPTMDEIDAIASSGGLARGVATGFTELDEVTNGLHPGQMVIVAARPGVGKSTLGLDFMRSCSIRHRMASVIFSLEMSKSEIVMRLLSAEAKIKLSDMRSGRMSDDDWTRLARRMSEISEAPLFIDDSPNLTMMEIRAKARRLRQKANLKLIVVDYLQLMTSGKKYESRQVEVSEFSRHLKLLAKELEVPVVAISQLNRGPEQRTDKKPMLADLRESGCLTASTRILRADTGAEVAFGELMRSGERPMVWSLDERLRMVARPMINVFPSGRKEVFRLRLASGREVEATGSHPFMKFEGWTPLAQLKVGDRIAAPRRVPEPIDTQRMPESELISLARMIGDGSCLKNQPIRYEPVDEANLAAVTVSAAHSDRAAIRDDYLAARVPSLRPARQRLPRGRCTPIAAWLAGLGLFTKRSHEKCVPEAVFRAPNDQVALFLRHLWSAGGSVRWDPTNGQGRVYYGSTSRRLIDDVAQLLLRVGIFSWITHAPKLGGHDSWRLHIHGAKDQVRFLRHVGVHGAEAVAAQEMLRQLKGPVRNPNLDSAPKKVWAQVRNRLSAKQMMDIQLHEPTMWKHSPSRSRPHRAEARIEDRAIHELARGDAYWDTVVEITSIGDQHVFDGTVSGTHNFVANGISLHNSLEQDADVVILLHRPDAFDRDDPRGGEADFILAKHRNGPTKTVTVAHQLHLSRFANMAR
Description: DnaB intein splicing inhibitors, dose response, biochemical, cell-free fluorescence (AID 449749). It counts as functional.

For data set [12], the target named is T4, Polyadenylate-binding protein 1. In words: MLLE binding blockers, Cy5 peptide tracer – biochemical, fluorescence polarization, Cy5-PAM2 peptide, secondary, miRNA deadenylation inhibitor project, dose response (AID 602260). It counts as functional. To be noted: read-out: IC50_Mean.
Another data set deals with T6, Protein RecA (Mycobacterium tuberculosis, UniProt P9WHJ3).
T6 sequence (P9WHJ3 whole entry): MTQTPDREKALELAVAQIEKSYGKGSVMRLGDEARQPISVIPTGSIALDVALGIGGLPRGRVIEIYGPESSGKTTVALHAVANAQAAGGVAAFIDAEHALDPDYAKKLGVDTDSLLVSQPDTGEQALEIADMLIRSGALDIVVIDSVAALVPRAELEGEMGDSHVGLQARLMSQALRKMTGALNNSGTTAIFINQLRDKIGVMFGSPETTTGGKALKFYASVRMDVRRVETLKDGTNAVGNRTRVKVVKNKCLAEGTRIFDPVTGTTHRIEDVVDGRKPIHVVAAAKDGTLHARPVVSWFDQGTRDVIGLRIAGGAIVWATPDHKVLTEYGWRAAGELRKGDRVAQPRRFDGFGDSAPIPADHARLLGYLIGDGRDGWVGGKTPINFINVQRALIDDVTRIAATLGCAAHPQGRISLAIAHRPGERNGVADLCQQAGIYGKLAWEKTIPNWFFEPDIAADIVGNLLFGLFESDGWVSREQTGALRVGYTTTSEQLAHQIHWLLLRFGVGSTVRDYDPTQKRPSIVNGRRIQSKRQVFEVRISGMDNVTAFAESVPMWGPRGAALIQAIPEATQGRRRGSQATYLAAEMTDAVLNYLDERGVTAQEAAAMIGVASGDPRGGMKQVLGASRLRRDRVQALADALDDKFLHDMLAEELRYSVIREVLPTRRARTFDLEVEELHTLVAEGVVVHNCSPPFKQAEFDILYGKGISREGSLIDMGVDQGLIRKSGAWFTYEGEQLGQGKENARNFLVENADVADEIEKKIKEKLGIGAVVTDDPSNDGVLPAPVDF
In words: Fluorescence Cell-Free Homogeneous Dose Retest to Identify Inhibitors of RecA-Intein Splicing Activity. [Related pubchem assays (depositor defined):AID2097, AID2223, AID489010, AID492950]. It counts as functional.

The next data set addresses Cytochrome P450 2C19 (Homo sapiens, UniProt P33261). In words: Cytochrome panel assay with activity outcomes. Panel member name: p450-cyp2c19 Compounds with AC50 equal or less than 10 uM are considered active. It counts as functional.

Structures are written as SMILES. The source made the active and inactive calls. A value given as a limit tells only on which side of the number the result lay.

Chain of DNA dC->dU-editing enzyme APOBEC-3G (Q9HC16 whole entry): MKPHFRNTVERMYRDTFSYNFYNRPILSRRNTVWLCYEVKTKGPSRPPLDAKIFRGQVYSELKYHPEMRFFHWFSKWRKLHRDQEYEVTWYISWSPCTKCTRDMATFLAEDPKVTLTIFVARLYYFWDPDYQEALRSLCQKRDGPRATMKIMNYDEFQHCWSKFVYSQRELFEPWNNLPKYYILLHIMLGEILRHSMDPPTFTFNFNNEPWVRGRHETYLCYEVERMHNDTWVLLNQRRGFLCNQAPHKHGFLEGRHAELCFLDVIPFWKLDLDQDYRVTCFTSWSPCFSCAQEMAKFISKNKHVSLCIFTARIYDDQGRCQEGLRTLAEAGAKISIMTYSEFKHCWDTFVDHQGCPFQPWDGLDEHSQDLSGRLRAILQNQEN
Chain of Glyceraldehyde-3-phosphate dehydrogenase (P04406 whole entry, the tested form may be a part): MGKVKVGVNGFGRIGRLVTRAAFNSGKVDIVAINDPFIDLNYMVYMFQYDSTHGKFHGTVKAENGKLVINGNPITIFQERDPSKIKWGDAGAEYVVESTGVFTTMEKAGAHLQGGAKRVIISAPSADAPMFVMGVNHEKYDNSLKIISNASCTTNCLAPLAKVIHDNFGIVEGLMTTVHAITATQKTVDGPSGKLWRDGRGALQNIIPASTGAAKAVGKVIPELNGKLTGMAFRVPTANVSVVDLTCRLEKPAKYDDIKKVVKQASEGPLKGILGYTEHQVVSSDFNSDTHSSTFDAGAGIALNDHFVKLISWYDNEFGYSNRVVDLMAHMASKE
Chain of Cytochrome P450 2C19 (P33261 whole entry): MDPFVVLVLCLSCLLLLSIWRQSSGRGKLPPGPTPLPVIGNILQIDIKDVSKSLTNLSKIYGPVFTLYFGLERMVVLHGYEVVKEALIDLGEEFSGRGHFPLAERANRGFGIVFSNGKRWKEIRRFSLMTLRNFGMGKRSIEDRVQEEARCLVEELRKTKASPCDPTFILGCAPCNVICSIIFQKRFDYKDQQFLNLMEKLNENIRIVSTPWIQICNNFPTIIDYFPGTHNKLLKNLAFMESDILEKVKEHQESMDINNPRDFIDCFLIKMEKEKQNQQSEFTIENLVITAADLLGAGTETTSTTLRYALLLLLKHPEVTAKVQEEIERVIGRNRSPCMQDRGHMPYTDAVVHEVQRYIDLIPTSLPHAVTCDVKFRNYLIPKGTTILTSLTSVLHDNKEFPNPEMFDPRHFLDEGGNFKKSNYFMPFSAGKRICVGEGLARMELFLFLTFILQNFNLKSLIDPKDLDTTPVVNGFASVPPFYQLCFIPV

With `COc1ccccc1C(=O)NC(=S)N1CCCc2ccccc21`, the EC50 (usually the concentration that produces a half-maximal response) in [1] was 9.63 µM (active); in [2], 16.2 µM (active); in the data set on H4, 31.6 µM (active); in [3] it was 29.9 µM (active). Further, the AC50 (as a rule, the midpoint of the concentration-response curve, whichever way the signal moves) at Cytochrome P450 2C9 was “inconclusive”.

For the compound `C=CCc1cccc2cc(C(=O)Nc3cccc(C(=O)O)c3)c(=O)oc12`, the IC50 in data set [4] is listed as > 100 µM (not active).

For the compound `C[C@@H]1CN([C@@H](C)CO)C(=O)c2cccc(NC(=O)C3CCCCC3)c2O[C@H]1CN(C)Cc1ccccc1`, the figures for the AC50 in [5], in data set [6] and in data set [7] were 39.6 µM (active), 10.8 µM (active) and 22.1 µM (active), respectively.

As to `COc1ccc(NC(=S)c2ccc3ccccc3n2)cc1`, in data set [8], the IC50 is 66.5 µM (active).

Consider `CCCCN1CCC(COC(=O)c2cc(Cl)c(N)c3c2OCCO3)CC1`, for which the results for the AC50 on Cytochrome P450 3A4 and on Cytochrome P450 2C9 were 3.16 µM (inconclusive) and “inconclusive”, respectively.

As to `O=C(O)/C(=C\c1cccc([N+](=O)[O-])c1)c1ccc(S(=O)(=O)N2CCCCC2)s1`, the IC50 in data set [9] was 9.53 µM (active). Further, on Caspase-6, the AC50 was 13.9 µM (active).

Take `Cc1ccc(S(=O)(=O)Nc2csc(C)c2C(=O)O)cc1`: the IC50 in data set [9] is 3.94 µM (active). Moreover, on Caspase-6, the AC50 is 4.99 µM (active).

On to `O=S(=O)(Nc1ccccc1Cl)c1cccc2nsnc12`, for which the IC50 in data set [9] was 11.2 µM (active). Also, the concentration at half-maximal activity (AC50) on Caspase-6 is 25.9 µM (active).

Take `CCCC#Cc1ccc2c(c1)O[C@H](CN(C)S(=O)(=O)c1cccc(F)c1)[C@H](C)CN([C@@H](C)CO)S2(=O)=O`: the AC50 in data set [5] was 25 µM (active); in data set [6], 15.2 µM (active); in [7], 25.9 µM (active).

For `CO[C@H]1CN(C)C(=O)c2ccc(NS(=O)(=O)c3cccc(Cl)c3)cc2OC[C@@H](C)NC[C@H]1C`, the AC50 on Caspase-6 was 19.7 µM (active).

With `O=C1C(Cl)=C(N2CCN(Cc3ccc4c(c3)OCO4)CC2)C(=O)N1c1ccc(C(F)(F)F)cc1`, the IC50 in data set [4] is > 50 µM (inconclusive).

Turning to `C[C@H](CO)N1C[C@H](C)[C@H](CN(C)S(=O)(=O)c2ccc(F)cc2)Oc2cc(Br)ccc2S1(=O)=O`, the figures for the AC50 in [5], in data set [6] and in [7] were 1.5 µM (active), 1.13 µM (active) and 4.74 µM (active), respectively.

As to `CC(=O)c1c(Cl)nc2cccc3c2c1-c1ccccc1C3=O`, the IC50 was 55.6 µM (inactive) in [10] and > 66 µM (inactive) in data set [12]. In addition, the AC50 in data set [11] is > 380 µM (inactive). The EC50 on Protein RecA was 0.297 µM (inconclusive).

In the case of `CC(C)Cn1c(S)nnc1-c1ccc(F)cc1`, in data set [8], the IC50 is 9.54 µM (active).

For the compound `Cn1cnc(CCN)c1` [N-METHYLHISTAMINE], the AC50 result on Cytochrome P450 2C19 and at Cytochrome P450 2C9 was “inconclusive” each time.

For the compound `Cc1ccc(S(=O)(=O)N2CCN(C(=O)C3COc4ccccc4O3)CC2)cc1C` (centres undefined), the AC50 result on Cytochrome P450 2C9 is listed as “inconclusive”.
